In patent US20140228349A1, “5,7-SUBSTITUTED-IMIDAZO[1,2-C]PYRIMIDINES” (Array BioPharma Inc., priority 2011, published 2014):

What was measured:
Type in all cases: biochemical
Human Tyk2 kinase domain = target: T1, Human Tyk2 kinase domain (Homo sapiens, UniProt P29597); assay: Tyk2 Inhibition Assay (Omnia kinase fluorescence peptide substrate); settings: averaged IC50 ranges; 10 μM (Km app) or 1 mM ATP, 2 nM Tyk2
T1 construct: comprising amino acids 886 to 1187; His10 (10 histidine residues) (C, cleaved yes); made in house
T1 sequence (P29597 886-1187): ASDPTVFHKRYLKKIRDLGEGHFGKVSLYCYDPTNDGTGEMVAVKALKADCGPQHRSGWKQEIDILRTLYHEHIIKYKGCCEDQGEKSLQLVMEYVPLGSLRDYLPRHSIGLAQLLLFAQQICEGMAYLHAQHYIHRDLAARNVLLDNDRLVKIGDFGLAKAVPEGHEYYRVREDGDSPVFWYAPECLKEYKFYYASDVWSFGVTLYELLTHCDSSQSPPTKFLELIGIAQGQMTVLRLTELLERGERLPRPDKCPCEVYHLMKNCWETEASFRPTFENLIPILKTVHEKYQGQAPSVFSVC
Text: (§1) The assays described in Examples A, B, C and D for the determination of Tyk2, JAK1, JAK2 and JAK3 kinase activity, respectively, utilized the Omnia® Kinase fluorescence peptide substrate-based technology (Invitrogen). The specific components of the assay mixture are described in Examples A, B, C and D. In these assays, Mg^2+ is chelated upon phosphorylation of the Omnia peptide by the kinase to form a bridge between the chelation-enhanced fluorophore Sox and the phosphate, resulting in an increase in fluorescence emission at 485 nm when excited at […]. The reactions were therefore read at excitation 360 nm and emission was measured at 485 nm every 50 seconds for 45 minutes using a PerkinElmer EnVision Multilabel Plate Reader.
(§2) The final buffer conditions for Tyk2, JAK1, JAK2, and JAK3 assays were as follows: 25 mM HEPES, pH 7.4, 10 mM MgCl2, 0.01% Triton X-100 and 1 mM DTT.
(§3) Compounds were prepared at 50× the final concentration in DMSO by conducting 3-fold serial dilutions from a 500-μM intermediate dilution to give a 10-point dosing curve having a high dose of 10 μM. Two-μL aliquots of these were transferred to a fresh plate for a ten-fold intermediate dilution with assay buffer. Five-μL aliquots of the diluted compounds were then transferred to 20-μL of assay mixtures described in Examples A, B, C and D for a final concentration of DMSO of 2%. A standard or reference compound was typically included on each assay plate to validate that plate. For each plate, percent of control (POC) values were calculated for each well according to the following equation: […]
(§4) IC50's were estimated from the POC's using a standard 4-parameter logistic model:
(§5) The IC50 is defined as the concentration of inhibitor at which the POC equals 50 for the fitted curve.
Compounds of Formula I were screened for their ability to inhibit Tyk2 using the general enzyme inhibition assay method, in which the assay mixture contained 10 μM (Km app) or 1 mM ATP, 8 μM Omnia® Y12 peptide (Catalog #IVGN KPZ3121C; Invitrogen Corporation, Carlsbad, Calif.) and 2 nM Tyk2 in a total volume of 20 μL. Human Tyk2 kinase domain, comprising amino acids 886 to 1187 with 10 additional histidine residues (histidine tag) on the carboxy terminus, was expressed and purified from bacculovirus in-house at Array BioPharma Inc. (Boulder, Colo.). The histidine tag was cleaved after purification using standard conditions.

JAK1 = target: T2, JAK1 (Homo sapiens, UniProt P23458); assay: JAK1 Inhibition Assay (Omnia kinase fluorescence peptide substrate); settings: averaged IC50 ranges; 40 μM (Km app) or 1 mM ATP, 15 nM JAK1
T2 construct: purchased Invitrogen Corporation, Carlsbad, Calif; IVGN PV4775
Text: as §1, §2, §3, §4, §5
Compounds of Formula I were screened for their ability to inhibit JAK1 using the general enzyme inhibition assay method, in which the assay mixture contained 40 μM (Km app) or 1 mM ATP, 8 μM Omnia® Y12 peptide (Catalog #IVGN KPZ3121C; Invitrogen Corporation, Carlsbad, Calif.) and 15 nM JAK1 in a total volume of 20 μL. JAK1 was purchased from Invitrogen Corporation, Carlsbad, Calif. (catalog #IVGN PV4775).

JAK3 = target: T3, JAK3 (Homo sapiens, UniProt P52333); assay: JAK3 Inhibition Assay (Omnia kinase fluorescence peptide substrate); settings: averaged IC50 ranges; 10 μM (Km app) or 1 mM ATP, 2.5 nM JAK3
T3 construct: purchased Invitrogen Corporation, Carlsbad, Calif; IVGN PV4080
T3 sequence (P52333 1-1124): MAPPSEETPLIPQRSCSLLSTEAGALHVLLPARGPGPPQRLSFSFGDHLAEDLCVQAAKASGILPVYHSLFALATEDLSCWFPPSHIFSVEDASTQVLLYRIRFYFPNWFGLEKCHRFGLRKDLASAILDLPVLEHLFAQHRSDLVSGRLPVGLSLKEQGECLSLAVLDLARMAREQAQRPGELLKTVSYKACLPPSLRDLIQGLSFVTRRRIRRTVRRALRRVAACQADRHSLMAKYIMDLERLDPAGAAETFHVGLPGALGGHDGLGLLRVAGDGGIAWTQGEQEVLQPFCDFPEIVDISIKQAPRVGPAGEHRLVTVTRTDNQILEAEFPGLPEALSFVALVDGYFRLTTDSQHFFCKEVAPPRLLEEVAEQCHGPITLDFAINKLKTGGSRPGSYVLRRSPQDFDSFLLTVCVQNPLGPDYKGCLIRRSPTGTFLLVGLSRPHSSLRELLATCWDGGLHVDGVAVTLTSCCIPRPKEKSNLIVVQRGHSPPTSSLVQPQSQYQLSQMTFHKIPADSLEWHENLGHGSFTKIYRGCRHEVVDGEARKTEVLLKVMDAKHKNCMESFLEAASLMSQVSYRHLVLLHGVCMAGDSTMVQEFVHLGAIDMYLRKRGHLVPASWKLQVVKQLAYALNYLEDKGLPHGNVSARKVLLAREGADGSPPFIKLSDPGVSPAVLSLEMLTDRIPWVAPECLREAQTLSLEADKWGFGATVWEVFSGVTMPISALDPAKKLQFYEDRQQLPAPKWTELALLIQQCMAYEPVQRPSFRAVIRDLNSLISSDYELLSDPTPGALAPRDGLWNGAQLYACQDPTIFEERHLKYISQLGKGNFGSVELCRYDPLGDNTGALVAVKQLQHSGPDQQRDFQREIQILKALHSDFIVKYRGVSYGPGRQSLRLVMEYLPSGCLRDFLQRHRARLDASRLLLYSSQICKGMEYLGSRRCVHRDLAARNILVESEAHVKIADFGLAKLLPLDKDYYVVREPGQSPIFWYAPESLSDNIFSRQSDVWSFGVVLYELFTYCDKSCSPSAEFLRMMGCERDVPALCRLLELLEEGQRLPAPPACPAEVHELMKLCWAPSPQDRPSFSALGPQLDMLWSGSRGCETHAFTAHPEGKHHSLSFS
Text: as §1, §2, §3, §4, §5
(§6) Compounds of Formula I were screened for their ability to inhibit JAK3 using the general enzyme inhibition assay method, in which the assay mixture contained 10 μM (Km app) or 1 mM ATP, 10 μM Omnia® Y7 peptide (Catalog #IVGN KNZ3071C, Invitrogen Corporation, Carlsbad, Calif.) and 2.5 nM JAK3 in a total volume of 20 μL. JAK3 was purchased from Invitrogen Corporation, Carlsbad, Calif. (catalog #IVGN PV4080).

JAK2 = target: T4, JAK2 (Homo sapiens, UniProt O60674); assay: JAK2 Inhibition Assay (Omnia kinase fluorescence peptide substrate); settings: averaged IC50 ranges; 25 μM (Km app) or 1 mM ATP, 5 nM JAK2
T4 construct: purchased Invitrogen Corporation, Carlsbad, Calif; IVGN PV4288
Text: as §1, §2, §3, §4, §5
as §6, with “inhibit JAK2” for “inhibit JAK3”, “contained 25” for “contained 10”, “and 5” for “and 2.5”, “nM JAK2” for “nM JAK3”, “μL. JAK2” for “μL. JAK3”, “#IVGN PV4288).” for “#IVGN PV4080).”

T4 sequence (O60674 whole entry): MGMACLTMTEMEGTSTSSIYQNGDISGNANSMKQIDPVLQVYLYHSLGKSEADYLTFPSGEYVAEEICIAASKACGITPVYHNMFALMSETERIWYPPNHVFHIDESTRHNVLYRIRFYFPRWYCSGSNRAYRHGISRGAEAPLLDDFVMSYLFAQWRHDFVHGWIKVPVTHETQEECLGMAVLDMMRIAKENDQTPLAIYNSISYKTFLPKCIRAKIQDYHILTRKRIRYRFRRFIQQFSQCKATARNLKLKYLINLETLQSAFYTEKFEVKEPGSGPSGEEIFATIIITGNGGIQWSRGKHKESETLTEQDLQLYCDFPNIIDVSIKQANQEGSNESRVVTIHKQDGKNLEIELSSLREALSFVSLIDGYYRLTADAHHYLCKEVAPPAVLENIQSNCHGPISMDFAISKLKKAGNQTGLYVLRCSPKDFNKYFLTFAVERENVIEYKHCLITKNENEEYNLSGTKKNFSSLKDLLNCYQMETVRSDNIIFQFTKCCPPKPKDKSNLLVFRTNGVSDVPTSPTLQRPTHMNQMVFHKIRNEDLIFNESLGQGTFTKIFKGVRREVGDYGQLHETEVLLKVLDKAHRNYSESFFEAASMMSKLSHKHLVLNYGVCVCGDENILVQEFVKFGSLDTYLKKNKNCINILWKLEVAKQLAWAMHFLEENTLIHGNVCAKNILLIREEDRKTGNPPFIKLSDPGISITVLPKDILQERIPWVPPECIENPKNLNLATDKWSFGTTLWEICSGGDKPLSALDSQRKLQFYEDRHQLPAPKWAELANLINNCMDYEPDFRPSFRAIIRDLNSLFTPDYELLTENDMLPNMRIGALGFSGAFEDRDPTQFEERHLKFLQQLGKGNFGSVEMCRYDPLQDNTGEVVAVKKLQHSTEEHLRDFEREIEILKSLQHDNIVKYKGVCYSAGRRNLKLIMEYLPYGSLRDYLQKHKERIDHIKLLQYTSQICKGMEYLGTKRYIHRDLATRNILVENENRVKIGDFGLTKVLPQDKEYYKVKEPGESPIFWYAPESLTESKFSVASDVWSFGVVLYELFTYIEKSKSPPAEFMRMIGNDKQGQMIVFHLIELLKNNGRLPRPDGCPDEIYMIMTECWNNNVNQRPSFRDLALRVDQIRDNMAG
T2 sequence (P23458 whole entry): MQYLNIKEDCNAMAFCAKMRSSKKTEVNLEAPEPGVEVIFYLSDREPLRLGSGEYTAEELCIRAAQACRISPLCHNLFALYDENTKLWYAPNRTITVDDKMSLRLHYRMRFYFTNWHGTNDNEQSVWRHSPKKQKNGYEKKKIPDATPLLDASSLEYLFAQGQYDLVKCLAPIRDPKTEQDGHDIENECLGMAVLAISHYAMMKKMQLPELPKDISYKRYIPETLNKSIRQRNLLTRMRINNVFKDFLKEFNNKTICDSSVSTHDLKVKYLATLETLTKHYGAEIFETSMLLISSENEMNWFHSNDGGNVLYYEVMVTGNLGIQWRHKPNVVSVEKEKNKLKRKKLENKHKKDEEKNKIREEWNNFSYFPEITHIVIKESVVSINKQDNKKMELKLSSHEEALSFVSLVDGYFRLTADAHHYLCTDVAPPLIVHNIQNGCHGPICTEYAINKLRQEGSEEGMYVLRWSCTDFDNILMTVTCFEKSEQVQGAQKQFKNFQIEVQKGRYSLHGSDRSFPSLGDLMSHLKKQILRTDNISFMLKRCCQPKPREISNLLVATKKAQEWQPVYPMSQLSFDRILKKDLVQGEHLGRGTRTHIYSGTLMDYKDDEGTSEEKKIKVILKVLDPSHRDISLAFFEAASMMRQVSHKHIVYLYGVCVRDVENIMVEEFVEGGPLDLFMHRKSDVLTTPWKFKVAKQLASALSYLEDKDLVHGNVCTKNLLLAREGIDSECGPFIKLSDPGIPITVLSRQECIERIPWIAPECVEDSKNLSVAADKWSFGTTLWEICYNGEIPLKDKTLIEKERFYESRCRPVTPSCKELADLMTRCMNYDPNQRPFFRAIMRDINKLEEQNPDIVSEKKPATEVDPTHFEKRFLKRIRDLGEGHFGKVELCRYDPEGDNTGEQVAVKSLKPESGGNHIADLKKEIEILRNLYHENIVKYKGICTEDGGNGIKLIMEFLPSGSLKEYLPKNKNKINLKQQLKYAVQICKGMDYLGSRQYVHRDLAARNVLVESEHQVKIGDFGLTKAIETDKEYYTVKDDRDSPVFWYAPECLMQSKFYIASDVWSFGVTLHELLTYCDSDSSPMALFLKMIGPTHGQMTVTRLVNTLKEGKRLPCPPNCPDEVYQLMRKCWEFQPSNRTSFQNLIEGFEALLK

Row | Compound | IC50 (Human Tyk2 kinase domain) [nM] | IC50 (JAK1) [nM] | IC50 (JAK3) [nM] | IC50 (JAK2) [nM]
1 | C/C=C/[C@H](C1CC1)n1cc(-c2nc(-c3cnn(C)c3)cc3nccn23)cn1 [Example 38, (S,E)-5-(1-(1-cyclopropylbut-2-en-1-yl)-1H-pyrazol-4-yl)-7-(1-methyl-1H-pyrazol-4-yl)imidazo[1,2-c]pyrimidine] | 100 to 1000 | > 1000 | > 1000 | 100 to 1000
2 | Cn1cc(-c2cc3nccn3c(-c3cnn([C@@H](CCF)C4CCC4)c3)n2)cn1 [Example 37, (S)-5-(1-(1-cyclobutyl-3-fluoropropyl)-1H-pyrazol-4-yl)-7-(1-methyl-1H-pyrazol-4-yl)imidazo[1,2-c]pyrimidine] | 10 to 100 | 100 to 1000 | 100 to 1000 | 100 to 1000
3 | Cn1cc(-c2cc3nccn3c(-c3cnn(C(CO)C4CC4)c3)n2)cn1 (stereo not shown) [Example 6, 2-cyclopropyl-2-(4-(7-(1-methyl-1H-pyrazol-4-yl)imidazo[1,2-c]pyrimidin-5-yl)-1H-pyrazol-1-yl)ethanol] | 100 to 1000 | > 1000 | > 1000 | > 1000
4 | CCOCCC(C1CCC1)n1cc(-c2nc(-c3cnn(C)c3)cc3nccn23)cn1 (stereo not shown) [Example 67, 5-(1-(1-cyclobutyl-3-ethoxypropyl)-1H-pyrazol-4-yl)-7-(1-methyl-1H-pyrazol-4-yl)imidazo[1,2-c]pyrimidine] | 100 to 1000 | > 1000 | > 1000 | 100 to 1000
5 | Cn1cc(-c2cc3nccn3c(-c3cnn(C4(CCF)CN(S(=O)(=O)CC5CC5)C4)c3)n2)cn1 [Example 87, 5-(1-(1-((cyclopropylmethyl)sulfonyl)-3-(2-fluoroethyl)azetidin-3-yl)-1H-pyrazol-4-yl)-7-(1-methyl-1H-pyrazol-4-yl)imidazo[1,2-c]pyrimidine] | 100 to 1000 | 100 to 1000 | 100 to 1000 | 100 to 1000
6 | C=CC1(n2ccc(-c3nc(-c4cnn(C)c4)cc4nccn34)c2)CN(S(=O)(=O)C(F)(F)F)C1 [Example 27, 7-(1-methyl-1H-pyrazol-4-yl)-5-(1-(1-((trifluoromethyl)sulfonyl)-3-vinylazetidin-3-yl)-1H-pyrrol-3-yl)imidazo[1,2-c]pyrimidine] | < 10 | 10 to 100 | 10 to 100 | 10 to 100
7 | Cn1cc(-c2cc3nccn3c(-c3cnn(C4(CC(C)(C)O)CN(S(=O)(=O)C(F)(F)F)C4)c3)n2)cn1 [Example 94, 2-methyl-1-(3-(4-(7-(1-methyl-1H-pyrazol-4-yl)imidazo[1,2-c]pyrimidin-5-yl)-1H-pyrazol-1-yl)-1-((trifluoromethyl)sulfonyl)azetidin-3-yl)propan-2-ol] | 100 to 1000 | 100 to 1000 | > 1000 | 100 to 1000
8 | Cc1nn(C)cc1S(=O)(=O)N1CC(CCF)(n2cc(-c3nc(-c4cnn(C)c4)cc4nccn34)cn2)C1 [Example 85, 5-(1-(1-((1,3-dimethyl-1H-pyrazol-4-yl)sulfonyl)-3-(2-fluoroethyl)azetidin-3-yl)-1H-pyrazol-4-yl)-7-(1-methyl-1H-pyrazol-4-yl)imidazo[1,2-c]pyrimidine] | 100 to 1000 | 100 to 1000 | > 1000 | 100 to 1000
9 | Cn1cc(-c2cc3nccn3c(-c3cnn(C(CCO)C4CCCC4)c3)n2)cn1 (stereo not shown) [Example 72, 3-cyclopentyl-3-(4-(7-(1-methyl-1H-pyrazol-4-yl)imidazo[1,2-c]pyrimidin-5-yl)-1H-pyrazol-1-yl)propan-1-ol] | 100 to 1000 | > 1000 | > 1000 | > 1000
10 | O=S(=O)(N1CC(CCF)(n2cc(-c3nc(-c4cn[nH]c4)cc4nccn34)cn2)C1)C(F)(F)F [Example 78, 5-(1-(3-(2-fluoroethyl)-1-((trifluoromethyl)sulfonyl)azetidin-3-yl)-1H-pyrazol-4-yl)-7-(1H-pyrazol-4-yl)imidazo[1,2-c]pyrimidine] | < 10 | 10 to 100 | 100 to 1000 | 10 to 100
11 | Cn1cc(-c2cc3nccn3c(-c3cnn(C(CCF)C4CC4)c3)n2)cn1 (stereo not shown) [Example 17, 5-(1-(1-Cyclopropyl-3-fluoropropyl)-1H-pyrazol-4-yl)-7-(1-methyl-1H-pyrazol-4-yl)imidazo[1,2-c]pyrimidine] | < 10 | 100 to 1000 | 100 to 1000 | 10 to 100
12 | Cn1cc(-c2cc3nccn3c(-c3ccn([C@H](CCF)[C@H]4CC4(F)F)c3)n2)cn1 [Example 29, 5-(1-((R)-1-((R)-2,2-difluorocyclopropyl)-3-fluoropropyl)-1H-pyrrol-3-yl)-7-(1-methyl-1H-pyrazol-4-yl)imidazo[1,2-c]pyrimidine] | < 10 | – | – | 10 to 100
